How the values were obtained:
[1] = target: T1, Ectonucleotide pyrophosphatase/phosphodiesterase family member 3 (Homo sapiens) (UniProt O14638); experiment: Inhibition of ENPP3 (unknown origin) at 10 uM relative to control
T1 sequence (whole entry): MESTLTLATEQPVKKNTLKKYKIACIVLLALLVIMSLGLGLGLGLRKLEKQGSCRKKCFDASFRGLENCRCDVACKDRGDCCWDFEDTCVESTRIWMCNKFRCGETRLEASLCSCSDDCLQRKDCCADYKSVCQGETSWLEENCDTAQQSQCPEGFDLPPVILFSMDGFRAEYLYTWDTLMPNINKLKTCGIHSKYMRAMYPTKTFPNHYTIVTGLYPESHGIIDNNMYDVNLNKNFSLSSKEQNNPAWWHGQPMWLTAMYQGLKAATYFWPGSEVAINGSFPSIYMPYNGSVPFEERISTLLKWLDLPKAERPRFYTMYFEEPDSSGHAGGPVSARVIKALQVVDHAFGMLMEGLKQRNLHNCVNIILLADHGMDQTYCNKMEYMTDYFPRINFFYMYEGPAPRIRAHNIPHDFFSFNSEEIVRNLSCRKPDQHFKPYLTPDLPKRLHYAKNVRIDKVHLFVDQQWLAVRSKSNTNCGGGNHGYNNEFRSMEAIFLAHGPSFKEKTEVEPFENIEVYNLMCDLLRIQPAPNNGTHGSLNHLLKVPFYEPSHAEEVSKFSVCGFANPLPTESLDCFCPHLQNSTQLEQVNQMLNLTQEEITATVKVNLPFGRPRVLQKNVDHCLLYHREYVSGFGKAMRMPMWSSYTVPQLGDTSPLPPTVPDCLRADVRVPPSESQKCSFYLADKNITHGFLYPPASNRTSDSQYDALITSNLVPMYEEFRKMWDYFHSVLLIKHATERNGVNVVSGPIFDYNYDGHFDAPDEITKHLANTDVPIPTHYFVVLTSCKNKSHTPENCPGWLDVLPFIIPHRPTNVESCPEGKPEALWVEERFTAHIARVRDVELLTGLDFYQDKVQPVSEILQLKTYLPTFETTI

THP1-Dual = experiment: Cytotoxicity against human THP1-Dual cells upto 50 uM; format: toxicity, cell-based
[2] = target: T1, Ectonucleotide pyrophosphatase/phosphodiesterase family member 3 (Homo sapiens); experiment: Inhibition of ENPP3 (unknown origin) at 50 uM relative to control
[3] = target: T2, Ectonucleotide pyrophosphatase/phosphodiesterase family member 3 (Homo sapiens, UniProt O14638); experiment: Inhibition of ENPP3 (unknown origin) assessed as reduction in 2'3'-cGAMP hydrolysis by AMP-Glo assay
T2 sequence (O14638 whole entry): T1 sequence (whole entry)

[4] = target: T1, Ectonucleotide pyrophosphatase/phosphodiesterase family member 3 (Homo sapiens); experiment: Inhibition of ENPP3 (unknown origin) assessed as reduction in ATP hydrolysis at 50 uM by AMP-Glo assay relative to control
Autotaxin [5] = target: T3, Autotaxin (Homo sapiens, UniProt Q13822); experiment: Inhibition of ENPP2 (unknown origin) at 50 uM relative to control
[6] = target: T2, Ectonucleotide pyrophosphatase/phosphodiesterase family member 3; experiment: Inhibition of ENPP3 (unknown origin)
[7] = target: T2, Ectonucleotide pyrophosphatase/phosphodiesterase family member 3; experiment: Inhibition of ENPP3 (unknown origin) assessed as reduction in ATP hydrolysis by AMP-Glo assay
[8] = target: T1, Ectonucleotide pyrophosphatase/phosphodiesterase family member 3 (Homo sapiens); experiment: Inhibition of ENPP3 (unknown origin) assessed as reduction in 2'3'-cGAMP hydrolysis at 50 uM by AMP-Glo assay relative to control
[9] = target: T4, Ectonucleotide pyrophosphatase/phosphodiesterase family member 1 (Homo sapiens, UniProt P22413); experiment: Inhibition of ENPP1 (unknown origin) assessed as reduction in ATP hydrolysis by AMP-Glo assay
T4 sequence (P22413 whole entry): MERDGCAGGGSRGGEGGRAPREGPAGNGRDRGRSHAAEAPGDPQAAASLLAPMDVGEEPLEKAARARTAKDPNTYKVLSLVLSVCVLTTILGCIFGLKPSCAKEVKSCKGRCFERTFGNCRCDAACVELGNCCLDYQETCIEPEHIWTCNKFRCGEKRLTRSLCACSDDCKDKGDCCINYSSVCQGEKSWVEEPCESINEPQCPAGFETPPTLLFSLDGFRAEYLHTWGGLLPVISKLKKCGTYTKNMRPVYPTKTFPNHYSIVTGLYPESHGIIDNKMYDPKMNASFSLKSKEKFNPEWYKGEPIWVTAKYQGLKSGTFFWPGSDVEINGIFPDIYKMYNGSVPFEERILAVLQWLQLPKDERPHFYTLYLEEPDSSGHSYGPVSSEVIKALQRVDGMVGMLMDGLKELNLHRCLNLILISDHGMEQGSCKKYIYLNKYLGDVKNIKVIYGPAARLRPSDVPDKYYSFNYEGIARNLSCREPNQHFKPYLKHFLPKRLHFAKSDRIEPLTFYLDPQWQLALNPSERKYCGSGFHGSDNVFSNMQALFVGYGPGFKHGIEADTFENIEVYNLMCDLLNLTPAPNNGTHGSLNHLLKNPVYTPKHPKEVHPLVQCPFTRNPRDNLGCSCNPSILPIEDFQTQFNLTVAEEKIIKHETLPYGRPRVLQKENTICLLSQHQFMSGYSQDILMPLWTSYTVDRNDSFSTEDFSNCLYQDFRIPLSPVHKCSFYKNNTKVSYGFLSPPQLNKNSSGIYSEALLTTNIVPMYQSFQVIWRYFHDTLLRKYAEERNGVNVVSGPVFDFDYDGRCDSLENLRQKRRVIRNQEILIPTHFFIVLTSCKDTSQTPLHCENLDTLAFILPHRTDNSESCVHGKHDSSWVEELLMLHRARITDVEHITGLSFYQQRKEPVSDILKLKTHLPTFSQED

Autotaxin [10] = target: T3, Autotaxin; experiment: Inhibition of ENPP2 (unknown origin)
[11] = target: T5, Glycerophosphocholine cholinephosphodiesterase ENPP6 (Homo sapiens) (UniProt Q6UWR7); experiment: Inhibition of ENPP6 (unknown origin) at 50 uM relative to control
T5 sequence (whole entry): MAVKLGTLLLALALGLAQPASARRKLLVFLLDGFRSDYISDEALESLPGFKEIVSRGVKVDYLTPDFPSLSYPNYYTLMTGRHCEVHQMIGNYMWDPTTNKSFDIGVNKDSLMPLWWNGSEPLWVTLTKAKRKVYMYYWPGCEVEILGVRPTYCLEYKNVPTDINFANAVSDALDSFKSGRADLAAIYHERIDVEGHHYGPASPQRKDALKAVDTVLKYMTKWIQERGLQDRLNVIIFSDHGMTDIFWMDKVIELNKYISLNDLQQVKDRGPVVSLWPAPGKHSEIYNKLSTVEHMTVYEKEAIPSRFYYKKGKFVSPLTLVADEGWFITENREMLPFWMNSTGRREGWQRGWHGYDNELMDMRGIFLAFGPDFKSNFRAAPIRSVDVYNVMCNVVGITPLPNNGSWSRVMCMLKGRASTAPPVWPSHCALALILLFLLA

[12] = target: T6, Glycerophosphocholine cholinephosphodiesterase ENPP6 (Homo sapiens, UniProt Q6UWR7); experiment: Inhibition of ENPP6 (unknown origin)
T6 sequence (Q6UWR7 whole entry): T5 sequence (whole entry)

[13] = target: T4, Ectonucleotide pyrophosphatase/phosphodiesterase family member 1; experiment: Inhibition of ENPP1 (unknown origin) assessed as reduction in 2'3'-cGAMP hydrolysis by AMP-Glo assay
[14] = target: T4, Ectonucleotide pyrophosphatase/phosphodiesterase family member 1; experiment: Inhibition of ENPP1 (unknown origin)
[15] = Cytotoxicity against human HepG2-Dual cells upto 50 uM; format: toxicity, cell-based; conditions: hepg2, 50 µM

inhibition [1] [%] | inhibition [2] [%] | IC50 [3] [µM] | inhibition [4] [%] | inhibition (Autotaxin [5]) [%] | IC50 [6] [µM] | IC50 [7] [µM] | inhibition [8] [%] | IC50 [9] [µM] | IC50 (Autotaxin [10]) [µM] | inhibition [11] [%] | IC50 [12] [µM] | IC50 [13] [µM] | IC50 [14] [µM] | SMILES | Activity (THP1-Dual) | Activity [15]
16 | – | – | – | – | – | – | – | – | – | – | – | – | – | Cc1nc2ncnn2c(N2CCCC2)c1Cc1ccccc1 | – | –
1 | – | – | – | – | – | – | – | – | – | – | – | – | – | Cc1nc2ncnn2c(N2CCCCC2)c1Cc1ccccc1 | – | –
– | 33 | > 50 | 1.6 | 8.9 | > 50 | > 50 | < 1 | 8.6 | > 50 | < 1 | > 50 | 9 | 1.1 | Cc1nc2ncnn2c(NCc2ccc(C(=O)O)cc2)c1Cc1cccc(N)c1 | Non-Toxic | Non-Toxic
2 | – | – | – | – | – | – | – | – | – | – | – | – | – | CCc1nc2ncnn2c(N(CC)Cc2ccccc2)c1Cc1ccccc1 | – | –
– | 22 | – | – | 27 | > 50 | – | – | – | > 50 | 3.5 | > 50 | – | 3.6 | Cc1nc2ncnn2c(NCCCCC(=O)O)c1Cc1cccc(N)c1 | – | –
5 | – | – | – | – | – | – | – | – | – | – | – | – | – | Cc1nc2ncnn2c(N2CCCCCC2)c1Cc1ccccc1 | – | –
– | 6.5 | – | – | 31 | > 50 | – | – | – | > 50 | < 1 | > 50 | – | 1.6 | COc1cccc(Cc2c(C)nc3ncnn3c2N(C)C)c1 | – | –
2 | – | – | – | – | – | – | – | – | – | – | – | – | – | Cc1nc2ncnn2c(N2CCC(C)CC2)c1Cc1ccccc1 | – | –
19 | 6.3 | > 50 | 7.5 | 31 | > 50 | > 50 | < 1 | – | > 50 | < 1 | > 50 | – | 0.74 | Cc1nc2ncnn2c(N(C)C)c1Cc1ccccc1 | – | –
– | 21 | – | – | < 1 | > 50 | – | – | – | > 50 | < 1 | > 50 | – | > 30 | Cc1nc2ncnn2c2c1Cc1ccccc1N2 | – | –
– | 3 | – | – | 15 | > 50 | – | – | – | > 50 | < 1 | > 50 | – | 2.5 | Cc1nc2ncnn2c(N(C)C)c1Cc1ccccc1Cl | – | –
– | 24 | > 50 | < 1 | 31 | > 50 | > 50 | < 1 | 1.8 | > 50 | < 1 | > 50 | 1.4 | 0.42 | Cc1nc2ncnn2c(N(C)C)c1Cc1cccc(O)c1 | Non-Toxic | Non-Toxic
– | 4.9 | – | – | 9.7 | > 50 | – | – | – | > 50 | 1.1 | > 50 | – | 3.1 | Cc1cccc(Cc2c(C)nc3ncnn3c2N(C)C)c1 | – | –
– | 8.7 | – | – | 19 | > 50 | – | – | – | > 50 | 1.3 | > 50 | – | 1.1 | Cc1nc2ncnn2c(N(C)C)c1Cc1cccc(Cl)c1 | – | –
– | 24 | > 50 | 4.2 | 11 | > 50 | > 50 | 2.2 | 0.85 | > 50 | < 1 | > 50 | 0.82 | 0.26 | Cc1nc2ncnn2c(N(C)C)c1Cc1cccc(N)c1 | Non-Toxic | Non-Toxic
– | 12 | – | – | 7.7 | > 50 | – | – | – | > 50 | < 1 | > 50 | – | 0.47 | Cc1nc2ncnn2c(N(C)C)c1Cc1ccc(N)cc1 | – | –

Reference: ChEMBL document CHEMBL5576074, “[1,2,4]Triazolo[1,5-a]pyrimidine derivatives: Structure-activity relationship study leading to highly selective ENPP1 inhibitors” (Bioorg Med Chem Lett, 2024)
